Measurements published in PubChem BioAssay AID179 (DTP/NCI, 2004).
“And” between values parts separate entries of the source, which are not always exact repeats. Equal entries are not always repeated. The source made the active and inactive calls.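 The calls were made as follows: active = compounds giving half or more protection of infected cells from virus-caused growth loss, again on retest; inactive = the rest.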

Test system: CEM cells HIV-1 protection, formazan growth assay
Assay: NCI AIDS Antiviral Assay
Conditions: for IC50: measured here: growth of uninfected CEM cells
Procedure, shortened: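 Human CEM cells, uninfected and HIV-1-infected, received five drug concentrations, and growth was read by soluble formazan assay. Compounds giving at least 50% protection were retested; reproducible 100% protection defined confirmed active.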

Row | SMILES | EC50 [µM] | IC50 | outcome
1 | COC1/C=C/OC2(C)Oc3c(C)c(O)c4c(O)c(cc(OCC(=O)N(C)C(C)C)c4c3C2=O)NC(=O)/C(C)=C/C=C/C(C)C(O)C(C)C(O)C(C)C(OC(C)=O)C1C (configuration not stated) | > 200 | 38 µM | 
2 | CN1C(=O)C2(C#N)C3(CCCC3)C2(C#N)C1=O (configuration not stated) | > 43.7 | > 43.7 µM | 
3 | COc1nc(OC)n(C)c(=O)c1OP(=O)(OC)OC | > 200 | > 200 µM | 
4 | CN(C)NP(=O)(NN(C)C)NN(C)C | > 200 | > 200 µM | 
5 | COC(=O)c1c(C(=O)OC)c(C(=O)OC)c(C(=O)OC)c1C(=O)OC |  |  | inactive
6 | O=C1C=C(C2CCCO2)C(=O)c2c(O)ccc(O)c21 (configuration not stated) |  |  | inactive
7 | O=C(Nc1ccc(Cl)c(C(F)(F)F)c1)C(=O)C(C(=O)/C=C/c1ccccc1)C1OC(=O)c2ccccc21 (configuration not stated) | > 129 | 20.9 µM | 
8 | CCOC(=O)Oc1cc2c(c(OC)c1OC)-c1ccc(OC)c(=O)cc1C(NC(C)=O)CC2 (configuration not stated) | > 2 | 0.00525 µM | 
9 | N#Cc1c(-c2ccco2)cc(-c2ccc(NCc3nc4ccccc4[nH]3)cc2)nc1N | > 12.9 | > 12.9 µM | 
10 | CN(C)CCNC(=O)c1noc2c1CSc1ccccc1-2 | > 407 | 28.2 µM | 
11 | CN1N=Nc2ccccc2C1(O)c1ccc(F)cc1 (configuration not stated) | > 200 | > 200 µM | 
12 | S=C1SC(=Nc2ccccc2)C(=Nc2ccccc2)N1c1ccccc1 | > 200 | 91.2 µM | 
13 | CCOC(=O)c1cc(=O)oc2c1N(C)c1ncccc1N2 | > 200 | 166 µM | 
14 | Oc1ccc(C2SCc3nc4ccccc4n32)cc1 (configuration not stated) | > 26.9 | > 26.9 µM | 
15 | C=C1C(=O)O[C@@H]2C=C(C)C3=CC(=O)[C@](C)(C[C@H](OC(=O)/C(C)=C\C)[C@@H]12)O3 | > 5.37 | 0.224 µM | 
16 | O=C1/C(=C/c2ccc(O)cc2)CCc2ccc([N+](=O)[O-])cc21 | > 200 | 81.3 µM | 
17 | CC(=O)Oc1cc(S(=O)(=O)Nc2n[nH]c(N)n2)c(S)cc1Cl | > 200 | > 200 µM | 
18 | Nc1c2ccccc2nc2ccc(C(=O)Nc3ccc(S(N)(=O)=O)cc3)cc12 | > 200 | > 200 µM | 
19 | O=c1[nH]c(=O)n(C2CC(O)C(CO)O2)cc1C#Cc1ccc(C(F)(F)F)cc1 (configuration not stated) | > 631 | 91.2 µM | 
20 | C[N+](C)(C)CC(=O)N/N=C(/C(=O)Nc1ccc(Br)cc1)C1C(=O)NC(=O)NC1=O | > 200 | > 200 µM | 
21 | Cc1cccc2c1C/C(=C\c1cccc(C)c1C(=O)O)C2=O |  |  | inactive
22 | COC(=O)C1C(O)C(C)C(O)C(C)/C=C\C=C(C)C(=O)Nc2c(C)c(OC(C)=O)c3c(c2O)C(=O)C(C)=C2OCOC(=C23)C(C)=CC(C)(O)C(O)C(C)C1O (configuration not stated) | > 324 | 117 µM and 162 µM | 

Row | SMILES | EC50 [µM] | IC50 | outcome
23 | NCCNc1ccc([N+](=O)[O-])c2c(=O)c3ccccc3[nH]c12 |  |  | inactive
24 | COc1ccc2c(c1)-c1nc(=S)n(CCN(C)C)c3ccc([N+](=O)[O-])c(c13)N2 | > 2 | 0.389 µM | 
25 | CC1=NN2C(=N)/C(=C/c3ccc(F)cc3)C(=O)N=C2S1 | > 200 | > 200 µM | 
26 | COC1CCC(OS(C)(=O)=O)CO1 (configuration not stated) | > 200 | 33.9 µM | 
27 | CC(CO)(CO)N1C(=O)C2C3C=CC(C3)C2C1=O (configuration not stated) | > 200 | > 200 µM | 
28 | CCN(CC)C(=S)N/N=C(\C)c1cccc(C)n1 | > 2 | 0.0132 µM | 
29 | O=C(CCC(C(=O)OCc1ccccc1)C(=O)OCc1ccccc1)Nc1ccc(OCc2ccccc2)cc1 | > 200 | 107 µM | 
30 | CC1CN2COC(=S)SSSSC(=S)OCN3CC(C)N(COC(=S)SSSSC(=S)OCN1CC2C)CC3C (configuration not stated) | > 100 | 12 µM | 
31 | COc1cc2c3c(c1OC)-c1[nH]c4ccccc4c1C1CCCN(CC2)C31 (configuration not stated) | > 138 | 15.1 µM | 
32 | O=C(O)c1onc2cc([N+](=O)[O-])ccc12 | > 1200 | 219 µM | 
33 | C/C(=N\O)c1sc(-n2nc(-c3ccccc3)cc2-c2ccccc2)nc1C | > 95.5 | 44.7 µM | 
34 | Cc1ccc(S(=O)(=O)N2CC3(CN(S(=O)(=O)c4ccc(C)cc4)CC4(C2)OCCO4)OCCO3)cc1 | > 200 | 85.1 µM | 
35 | COC(=O)C1Cc2c([nH]c3ccccc23)C=N1 (configuration not stated) |  |  | inactive
36 | Cn1c2ccccc2c2ccc3c(c21)C(=O)C=CC3=O | > 100 | 1.35 µM | 
37 | COc1cccc(N/C(C)=C2/CCOC2=O)c1 | > 200 | 105 µM | 
38 | COc1cccc(-c2cc(=O)c3cc(C)c(C)c(C(=O)O)c3o2)c1 |  |  | inactive
39 | O=C(O)c1cscc1Cc1ccccc1 | > 200 | > 200 µM | 
40 | CCCC(=O)c1ccc2c(ccc(=O)n2C)c1 | > 112 | 102 µM | 
41 | COc1ccc(C2CCC(Cl)(OC)CC2C=O)cc1 (configuration not stated) | > 245 | 155 µM | 
42 | N=C(N)C1CN(CC=O)C(=O)NC1=O (configuration not stated) | > 200 | > 200 µM | 
43 | COCCCNC1=C(C#N)C(=O)NC(c2cccc([N+](=O)[O-])c2)S1 (configuration not stated) | > 269 | 39.8 µM | 
44 | CC12CCC(c3sc(N)c(C#N)c31)C2(C)C (configuration not stated) | > 191 | 35.5 µM | 

Row | SMILES | EC50 [µM] | IC50 | outcome
45 | CC(=O)OC(/C=C1/C=CC(=O)O1)COC(=O)c1ccccc1 (configuration not stated) | > 309 | 5.89 µM | 
46 | COc1ccc(C(=O)N2CCN(c3ccc4c(c3)OCC(=O)N4)CC2)cc1 | > 200 | > 200 µM | 
47 | C=CC1(C)CCC2C(=CCC3C2(C)CC(O)C(O)C3(C)COC2OC(CO)C(O)C(O)C2O)C1 (configuration not stated) | > 200 | 39.8 µM | 
48 | CCN1CCC(O)(c2ccc(O)cc2)C(C(=O)c2ccc(O)cc2)C1 (configuration not stated) | > 16.2 | > 16.2 µM | 
49 | O=C1Nc2cccc3c2N(CCC3)C2=C1CCC2 | > 200 | > 200 µM | 
50 | CC12CCCC(O)C1CCC1=CC3(CCC12)SCCS3 (configuration not stated) | > 12 | > 12 µM | 
51 | CC(C)N(C(=O)C12C3C4C1C1C2C3C41C(=O)N(C(C)C)C(C)C)C(C)C (configuration not stated) | > 72.4 | > 72.4 µM | 
52 | CNC(=S)NNC1=NCCCN1 | > 200 | > 200 µM | 
53 | Cc1ccc(S(=O)(=O)OC[C@@H]2CO2)cc1 | > 115 | 14.1 µM | 
54 | N#Cc1cscc1C#N | > 200 | > 200 µM | 
55 | Oc1cc(Br)cc2cccnc12 |  |  | inactive
56 | CCOCc1c(C(=O)NCCO)[n+](=O)c2ccccc2n1[O-] | > 44.7 | > 44.7 µM | 
57 | CC(=O)c1sc2[n+](c1C)C(=O)/C(=C\c1ccccc1Cl)S2 | 31.6 | 110 µM | 
58 | O=c1c(NCc2ccccc2)c(C2(c3ccccc3F)SCCCS2)c1=O | > 200 | 151 µM | 
59 | C/C(CC(=O)NCCc1ccccc1)=N\NS(=O)(=O)c1ccc(C)cc1 | > 347 | 339 µM | 
60 | O=[N+]([O-])c1cc2ccc1OCc1cccc(n1)COc1ccc(cc1[N+](=O)[O-])C=NCCCCCCCCN=C2 | > 200 | > 200 µM | 
61 | CC[n+]1c([S-])nn(C)c1-c1cnccn1 | > 200 | > 200 µM | 
62 | O=C1c2ccc(S(=O)(=O)O)c(O)c2C(=O)c2ccc(S(=O)(=O)O)c(O)c21 |  |  | inactive
63 | O=C1NNC2(C(=O)N1)c1ccccc1-c1ccccc12 | > 200 | 93.3 µM | 
64 | CCOC(=O)C1=CC(C(=O)OCC)C2C=CC1N2C(=O)OC (configuration not stated) |  |  | inactive
65 | Cc1nc2sccn2c1C(=O)NC(=O)Nc1ccc(Cl)cc1 | > 20.4 | > 20.4 µM | 
66 | O=C(Cc1nc2ccccc2o1)C(=O)Nc1ccccc1C(F)(F)F |  |  | inactive

Row | SMILES | EC50 [µM] | IC50 | outcome
67 | O=c1c2ccccc2nc(-c2ccc(Br)cc2)n1NC1OC(CO)C(O)C(O)C1O (configuration not stated) |  |  | inactive
68 | CCc1ccccc1C1(Br)C(=O)c2ccccc2C1=O | > 200 | 45.7 µM | 
69 | COC(=O)C(=Cc1cc(OC)c(OC)c(OC)c1-c1cc2c(cc1C1(C)OCCS1)OCO2)C(=O)OC (configuration not stated) | > 18.6 | 15.5 µM | 
70 | FC1=C2CCCCCC2SC1(F)F (configuration not stated) | > 200 | 32.4 µM | 
71 | COc1ccc(/C=N/N/C(O)=c2/sc(=C(C#N)C#N)n(-c3ccccc3)c2=N)cc1 | > 9.12 | > 9.12 µM | 
72 | O=C(OC1CC(OC(=O)c2cc(O)c(O)c(O)c2)(C(=O)O)C[C@H](OC(=O)c2cc(O)c(O)c(O)c2)C1OC(=O)c1cc(O)c(O)c(O)c1)c1cc(O)c(O)c(O)c1 (some centres not stated) |  |  | inactive
73 | COC(CC1(/C=C/O[Si](C(C)C)(C(C)C)C(C)C)C(=O)N(COCC[Si](C)(C)C)c2ccccc21)OC (configuration not stated) | > 200 | 36.3 µM | 
74 | CC1=NOC(=O)/C1=C/c1ccccc1O | > 178 | > 178 µM | 
75 | Cc1cc2c(cc1-c1cc3c(cc1C)C(C(C)C)=C(O)C(=O)/C3=C\Nc1ccccn1)/C(=C/Nc1ccccn1)C(=O)C(O)=C2C(C)C | > 100 | 45.7 µM | 
76 | COc1cc2ccc1OCc1cccc(n1)COc1ccc(cc1OC)C=Nc1ccc(cc1)-c1ccc(cc1)N=C2 | > 200 | > 200 µM | 
77 | Cc1cccc2c1CC(C1OC(=O)c3ccccc31)C2=O (configuration not stated) | > 100 | > 100 µM | 
78 | On1c(-c2ccccc2)c(-c2c(-c3ccccc3)n(O)c3ccccc23)c2ccccc21 | > 316 | 132 µM | 
79 | OCC1NC(CO)C(O)C1O (configuration not stated) |  |  | inactive
80 | NCCN(CCN)CCN | > 151 | > 151 µM | 
81 | CN(C(=O)c1ccco1)C(=S)N1CCN(c2ccccn2)CC1 | > 398 | 209 µM | 
82 | Cc1ccnc(NC(=S)Nc2cc(C)ccn2)c1 | > 200 | 135 µM | 
83 | CCOC(=O)c1c(OCCCc2ccc(F)cc2)cc2ccc3ccccc3c2c1OCCCc1ccc(F)cc1 | > 18.2 | > 18.2 µM | 
84 | NC1C2CC3CC(C2)CC1(N)C3 (configuration not stated) |  |  | inactive
85 | C[C@@H]1CC(=O)[C@@]2(C)[C@](O)(CCC3O[C@]32C)[C@@]12CC(c1ccoc1)OC2=O (some centres not stated) | > 200 | 30.9 µM | 
86 | COC1=C(c2c[nH]c3ccc(CC=C(C)C)cc23)C(=O)C(OC)=C(c2c[nH]c3ccc(CC=C(C)C)cc23)C1=O | > 38.9 | 2.24 µM | 
87 | CCOC(=O)/C=C1\C(=O)N(Cc2ccccc2)c2ccccc21 | > 200 | 1 µM | 
88 | CC(=O)OCC1OC(n2c(C)cc(-c3cccc4ccccc34)c(C#N)c2=S)C(OC(C)=O)C(OC(C)=O)C1OC(C)=O (configuration not stated) | > 200 | 21.4 µM | 
